Assay results reported in publication PMC8206213, “An L-2-hydroxyglutarate biosensor based on specific transcriptional regulator LhgR” (Nature Communications, 2021).
Several values for one entry are separate records, joined by “and”; a condition that tells them apart may be missing. Identical values can stand only once.

Experiments:
LhgR = test: EMSA, effect of compounds on LhgR binding to the lhgO promoter region F1; parameters: species or system Pseudomonas putida W619; conditions: 50 mM compound, 10 nM F1, 60 nM LhgR
Description: Electrophoretic mobility shift assays (EMSAs) were carried out using the DNA fragment (F1 or F2) and purified LhgR. The DNA fragments were first amplified by primer pairs F1-F/F1-R and F2-F/F2-R, respectively. Then, either fragment at a concentration of 10 nM DNA was incubated with LhgR (0–160 nM) in 20 μL EMSA binding buffer (10 mM Tris-HCl [pH 7.4], 50 mM KCl, 0.5 mM EDTA, 10% [vol/vol] glycerol, and 1 mM dithiothreitol [DTT]). The binding reactions were carried out at 30 °C for 30 min. Electrophoresis was performed on 6% native polyacrylamide gels at 4 °C and 170 V (constant voltage) for about 45 min, followed by staining with SYBR green I (TaKaRa, China) and photographing. Analysis of the interaction between lhgO promoter region (F1) and LHGFR was performed using the same procedure.
To characterize the effector of LhgR, purified LhgR was first incubated with L-lysine, 5-aminovalerate, glutarate, L-2-HG, D-2-HG, 2-KG, or succinate at 30 °C for 15 min, followed by incubation with the added DNA fragments at 30 °C for 30 min. The mixtures were subsequently subjected to electrophoresis.

LHGFR0N3C = test: Specificity of purified LHGFR0N3C, emission ratio with 240 μM compounds; format: binding, Pseudomonas putida W619; conditions: 240 μM compound
LHGFR0N7C = test: Influence of other compounds on the response of purified LHGFR0N7C to L-2-HG; format: binding, Pseudomonas putida W619; conditions: Suppl. Fig. 9b; L-2-HG alone or with the compound; three replicates
Outline: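 Purified L-2-HG biosensors were mixed 3:1 with test compounds in 50 mM Tris-HCl pH 7.4, excited at 430 nm, and the 528 nm (Venus)/485 nm (mTFP) emission was read. Responses were fitted with a Hill model giving apparent Kd and Hill slope.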

[1] = tested on: LHGFR0N3C expressed in E. coli BL21(DE3); test: Specificity of LHGFR0N3C expressed in E. coli BL21(DE3), 1 mM compounds; format: cell-based; conditions: for Emission ratio: 1 mM compound, Fig. 5c
Description: (§1) To characterize the sensitivity and specificity of LHGFR expressed in E. coli BL21(DE3), 90 μL cell suspensions following 8 h carbon starvation were mixed with 10 μL increasing concentrations of L-2-HG or other compounds, and then added into a black 96-well plate (total 100 μL/per well), the fluorescence intensities were determined using an EnSight microplate reader (PerkinElmer, USA) and the following instrument settings: excitation at 430 nm, emission at 485 nm (mTFP) and 528 nm (Venus), time intervals of 5 min, the temperature at 37 °C, and shake at 180 rpm.

[2] = tested on: LHGFR0N7C expressed in E. coli BL21(DE3); test: Specificity of LHGFR0N7C expressed in E. coli BL21(DE3), 1 mM compounds; format: cell-based; conditions: Supplementary Fig. 13c
Description: as §1

[3] = tested on: LHGFR0N3C expressed in HEK293FT cells; test: Specificity of LHGFR0N3C expressed in permeabilized HEK293FT cells, 1 mM compounds; format: cell-based, human (HEK293FT cells); conditions: 1 mM compound, cells permeabilized with 10 μM digitonin, normalized to control
Description: (§2) To characterize the sensitivity and specificity of LHGFR expressed in HEK293FT cells, cells were trypsinized 48 h following transfection and suspended in 1× Hank’s balanced salt solution supplemented with 20 mM HEPES. […] Digitonin at a concentration of 10 μM was used to induce cell permeabilization and deplete intracellular L-2-HG for in vivo response curves construction. Then, the fluorescence intensities were determined by a SpectraMax i3 fluorescence plate reader (Molecular Devices, USA) with excitation at 430 nm and emission at 485 nm (mTFP) and 528 nm (Venus). Basal L-2-HG concentration in HEK293FT cells under physiological conditions was determined by substituting the emission ratios of non-permeabilized HEK293FT cells into the calibrated in vivo response curves.

[4] = tested on: LHGFR0N7C expressed in HEK293FT cells; test: Specificity of LHGFR0N7C expressed in permeabilized HEK293FT cells, 1 mM compounds; format: cell-based, human (HEK293FT cells); conditions: Supplementary Fig. 17d; Control about 1
Description: as §2

In the case of O=C(O)CCCC(=O)O [Glutarate, glutarate], the “Effect on LhgR binding to the lhgO promoter region F1” value (LhgR) is reported as “observed only in the presence of L-2-HG”, the Emission ratio (LHGFR0N3C) is reported as 1.395 and 1.399 and 1.404 and the “Induction of emission ratio changes” value (LHGFR0N3C) is reported as “None”. For the same compound, the Emission ratio (LHGFR0N7C) was 2.576 and 2.574 and 2.627, the Emission ratio ([1]; 0 min) was 1.019 and 1.014 and 1.009 and the Emission ratio ([1]; 5 min) was 1.014 and 1.015 and 0.998. The Emission ratio ([1]; 10 min) was 1.024 and 1.012 (2×), the Emission ratio ([1]; 15 min) was 1.024 and 1.01 and 1.013 and the Emission ratio ([1]; 20 min) was 1.025 and 1.007 and 1.004. The Emission ratio ([1]; 25 min) was 1.02 and 1.008 and 1.012, the Emission ratio ([1]; 30 min) was 1.022 and 1.0136 and 1.013 and the Emission ratio ([1]; 35 min) was 1.0109 and 1.008 and 1.004. The Emission ratio ([1]; 40 min) was 1.017 and 1.002 and 1.012, the Emission ratio ([1]; 45 min) was 1.022 and 1.0116 and 1.014 and the Emission ratio ([1]; 50 min) was 1.01 and 1 and 1.016. For the same compound, the Emission ratio ([1]; 55 min) was 1.008 and 1.012 and 1.02, the Emission ratio ([1]; 60 min) was 1.014 and 1.01 and 1.011 and the Emission ratio ([1]; 65 min) was 1.021 and 1.007 and 1.017. For the same compound, the Emission ratio ([1]; 70 min) was 1.032 and 1.006 and 1.011, the Emission ratio ([1]; 75 min) was 1.016 and 1.008 and 1.028 and the Emission ratio ([1]; 80 min) was 0.9989 and 1.018 and 1.024. For the same compound, the Emission ratio ([1]; 85 min) was 1.011 and 1.013 and 1.026, the Emission ratio ([1]; 90 min) was 1.005 and 1.016 and 1.027 and the “Increase of the emission ratio in E. coli BL21(DE3)” value ([1]; 1 mM exogenous compound) was “could not”. The “normalized emission ratio of biosensor expressed in E. coli” value (“normalized emission ratio of biosensor” for short) ([2]; time 0 min) was 1.0192 and 1.012 and 1.0143, the “normalized emission ratio of biosensor” value ([2]; time 5 min) was 1.029 and 1.007 and 0.9939 and the “normalized emission ratio of biosensor” value ([2]; time 10 min) was 1.033 and 1.008 (2×). For the same compound, the “normalized emission ratio of biosensor” value ([2]; time 15 min) was 1.028 and 1.024 and 1.005, the “normalized emission ratio of biosensor” value ([2]; time 20 min) was 1.023 and 1.015 and 1.006 and the “normalized emission ratio of biosensor” value ([2]; time 25 min) was 1.0228 and 1.021 and 1.005. For the same compound, the “normalized emission ratio of biosensor” value ([2]; time 30 min) was 1.026 and 1.014 and 1.016, the “normalized emission ratio of biosensor” value ([2]; time 35 min) was 1.019 and 1.016 (2×) and the “normalized emission ratio of biosensor” value ([2]; time 40 min) was 1.0289 and 1.022 and 1.012. For the same compound, the “normalized emission ratio of biosensor” value ([2]; time 45 min) was 1.023 and 1.017 and 1.024, the “normalized emission ratio of biosensor” value ([2]; time 50 min) was 1.027 and 1.014 and 1.019 and the “normalized emission ratio of biosensor” value ([2]; time 55 min) was 1.028 and 1.018 and 1.023. The “normalized emission ratio of biosensor” value ([2]; time 60 min) was 1.03 and 1.018 and 1.0254, the “normalized emission ratio of biosensor” value ([2]; time 65 min) was 1.027 and 1.013 and 1.037 and the “normalized emission ratio of biosensor” value ([2]; time 70 min) was 1.027 and 1.018 and 1.0281. For the same compound, the “normalized emission ratio of biosensor” value ([2]; time 75 min) was 1.034 and 1.022 and 1.035, the “normalized emission ratio of biosensor” value ([2]; time 80 min) was 1.0287 and 1.026 and 1.039 and the “normalized emission ratio of biosensor” value ([2]; time 85 min) was 1.03 and 1.021 and 1.038. The “normalized emission ratio of biosensor” value ([2]; time 90 min) was 1.036 and 1.0239 and 1.043, the Normalized emission ratio [3] was 0.9633 and 1.016 and 1.046 and the Normalized emission ratio [4] was 0.9993 and 0.9933 and 0.9442.
